Data as given in US20050112573A1, “Method of detecting toxic substance” (priority 2001, published 2005).

Test system: yeast genes (level of expressed mRNA)
Assay: DNA chip analysis of expressed mRNA of yeast genes after 2 h culture with a toxic chemical substance
Type: cell-based, Saccharomyces cerevisiae S288C
Procedure: Yeast (Saccharomyces cerevtisiae S288C (α SUC2mal mel gap2 CUP1)) were cultured at 25° C. on YPD medium (yeast extract 1%, polypepton 2%, glucose 2%). One of toxic chemical substances was added to the cell at logarithmic growth phase, and the cell was further cultured for two hours. Cell was cultured without any chemical substance in the same condition, and was used as control. Concentrations of the chemical substances were defined to inhibit the growth of the yeast but not lead to death.
After the completion of cultivation, the culture was centrifuged to collect the cells. To the cells, sodium acetate buffer (50 mM sodium acetate, 10 mM EDTA, 1% SDS) was added, and the mixture was shaken at 65° C. for five minutes, followed by returning to room temperature, and obtaining the supernatant, which procedure was repeated two times. To the supernatant, ½ amount of a solution of phenol/chloroform was added, and the mixture was centrifuged to give a supernatant, which was added with an equal amount of chloroform, and the mixture was centrifuged to give a supernatant. To the supernatant, an equal amount of isopropanol containing 0.3 M sodium acetate was added, and the mixture was allowed to stand at room temperature for 30 minutes, after which the mixture was centrifuged to give a sediment of the whole RNAs. Seventy % ethanol was added to the sediment, and the mixture was again centrifuged to give a sediment, which was then dried and dissolved in water. mRNA was isolated from the whole RNAs as followings. In view of the fact that a poly A chain is attached to the 3′ terminus of mRNA, a polynucleotide having a poly T structure which was immobilized on the surface of latex beads was used to trap the mRNA, and then the mRNA was washed and eluted with spine column (Oligotex-dT30<Super>mRNA Purification Kit, Takara). Reverse transcription of the mRNA was conducted with a reverse transcriptase (Super Script II Reverse Transcriptase; catalogue No. 18064-014, GibcoBRL) using fluorescence-labeled nucleotides to give cDNAs that were introduced with Cy3-dUTP or Cy5-dUTP during the reverse transcription.
The labeled cDNAs were dissolved in TE buffer (10 mM Tris-HCl/1 mM EDTA, pH8.0), and the solution was dropped on the DNA chip containing the whole genes of yeast (DNA Chip Research Inc. Japan) so that the cDNAs were hybridized on the DNA chip at 65° C. for over 12 hours. The fluoresces intensity of the DNA chip was read with a scanner, and the ratio relative to the fluorescence intensity resulting from the absence of chemical substance was estimated as the following, which is shown in Tables 1 to 9: [formula]
In the Tables, “Intensity” indicated in the rightmost column is a value of the level of expressed mRNA of each gene in control cells as divided by the average level of the expressions of the whole genes.

**Q.** How did the “The level of expressed mRNA in the presence of chemical substance/The level of expressed mRNA in the absence of chemical substance” value (yeast gene YKL039W) turn out when N#Cc1c(Cl)c(Cl)c(Cl)c(C#N)c1Cl [(9), 2,4,5,6-tetrachloro-1,3-benzenedicarbonitrile] was run?
**A.** The value was 1.3.

**Q.** And the “The level of expressed mRNA in the presence of chemical substance/The level of expressed mRNA in the absence of chemical substance” value (yeast gene YKL041W)?
**A.** The value was 1.6.

**Q.** What about the “The level of expressed mRNA in the presence of chemical substance/The level of expressed mRNA in the absence of chemical substance” value (yeast gene YKL139W) of the same compound?
**A.** The value was 1.6.

**Q.** And the “The level of expressed mRNA in the presence of chemical substance/The level of expressed mRNA in the absence of chemical substance” value (yeast gene YKL165C)?
**A.** Its value is 0.4.

**Q.** What about the “The level of expressed mRNA in the presence of chemical substance/The level of expressed mRNA in the absence of chemical substance” value (yeast gene YKL193C) of the same compound?
**A.** The value was 1.0.

**Q.** What about the “The level of expressed mRNA in the presence of chemical substance/The level of expressed mRNA in the absence of chemical substance” value (yeast gene YKR014C) of the same compound?
**A.** The value was 2.4.

**Q.** What about the “The level of expressed mRNA in the presence of chemical substance/The level of expressed mRNA in the absence of chemical substance” value (yeast gene YLR093C) of the same compound?
**A.** Its value is 1.5.

**Q.** What about the “The level of expressed mRNA in the presence of chemical substance/The level of expressed mRNA in the absence of chemical substance” value (yeast gene YLR120C) of the same compound?
**A.** Its value is 1.8.

**Q.** What about the “The level of expressed mRNA in the presence of chemical substance/The level of expressed mRNA in the absence of chemical substance” value (yeast gene YLR136C) of the same compound?
**A.** The value was 0.9.

**Q.** What about the “The level of expressed mRNA in the presence of chemical substance/The level of expressed mRNA in the absence of chemical substance” value (yeast gene YLR178C) of the same compound?
**A.** Its value is 4.3.

**Q.** And the “The level of expressed mRNA in the presence of chemical substance/The level of expressed mRNA in the absence of chemical substance” value (yeast gene YLR250W)?
**A.** The value was 2.7.

**Q.** What about the “The level of expressed mRNA in the presence of chemical substance/The level of expressed mRNA in the absence of chemical substance” value (yeast gene YLR327C) of the same compound?
**A.** The value was 3.0.

**Q.** What about the “The level of expressed mRNA in the presence of chemical substance/The level of expressed mRNA in the absence of chemical substance” value (yeast gene YLR356W) of the same compound?
**A.** The value was 2.3.

**Q.** And the “The level of expressed mRNA in the presence of chemical substance/The level of expressed mRNA in the absence of chemical substance” value (yeast gene YLR362W)?
**A.** Its value is 3.5.

**Q.** What about the “The level of expressed mRNA in the presence of chemical substance/The level of expressed mRNA in the absence of chemical substance” value (yeast gene YLR391W) of the same compound?
**A.** Its value is 0.4.

**Q.** What about the “The level of expressed mRNA in the presence of chemical substance/The level of expressed mRNA in the absence of chemical substance” value (yeast gene YLR429W) of the same compound?
**A.** The value was 0.9.

**Q.** What about the “The level of expressed mRNA in the presence of chemical substance/The level of expressed mRNA in the absence of chemical substance” value (yeast gene YMR004W) of the same compound?
**A.** The value was 94.2.

**Q.** And the “The level of expressed mRNA in the presence of chemical substance/The level of expressed mRNA in the absence of chemical substance” value (yeast gene YMR104C)?
**A.** Its value is 0.6.

**Q.** And the “The level of expressed mRNA in the presence of chemical substance/The level of expressed mRNA in the absence of chemical substance” value (yeast gene YMR219W)?
**A.** Its value is 2.3.

**Q.** What about the “The level of expressed mRNA in the presence of chemical substance/The level of expressed mRNA in the absence of chemical substance” value (yeast gene YMR226C) of the same compound?
**A.** The value was 2.6.

**Q.** And the “The level of expressed mRNA in the presence of chemical substance/The level of expressed mRNA in the absence of chemical substance” value (yeast gene YMR275C)?
**A.** Its value is 2.4.

**Q.** And the “The level of expressed mRNA in the presence of chemical substance/The level of expressed mRNA in the absence of chemical substance” value (yeast gene YMR276W)?
**A.** Its value is 1.8.

**Q.** And the “The level of expressed mRNA in the presence of chemical substance/The level of expressed mRNA in the absence of chemical substance” value (yeast gene YMR314W)?
**A.** Its value is 5.9.

**Q.** What about the “The level of expressed mRNA in the presence of chemical substance/The level of expressed mRNA in the absence of chemical substance” value (yeast gene YNL006W) of the same compound?
**A.** The value was 4.0.

**Q.** What about the “The level of expressed mRNA in the presence of chemical substance/The level of expressed mRNA in the absence of chemical substance” value (yeast gene YNL007C) of the same compound?
**A.** The value was 3.0.

**Q.** What about the “The level of expressed mRNA in the presence of chemical substance/The level of expressed mRNA in the absence of chemical substance” value (yeast gene YNL093W) of the same compound?
**A.** The value was 1.7.

**Q.** What about the “The level of expressed mRNA in the presence of chemical substance/The level of expressed mRNA in the absence of chemical substance” value (yeast gene YNL333W) of the same compound?
**A.** The value was 2.3.

**Q.** And the “The level of expressed mRNA in the presence of chemical substance/The level of expressed mRNA in the absence of chemical substance” value (yeast gene YNR010W)?
**A.** Its value is 1.7.

**Q.** And the “The level of expressed mRNA in the presence of chemical substance/The level of expressed mRNA in the absence of chemical substance” value (yeast gene YNR069C)?
**A.** The value was 5.5.

**Q.** What about the “The level of expressed mRNA in the presence of chemical substance/The level of expressed mRNA in the absence of chemical substance” value (yeast gene YOL013C) of the same compound?
**A.** The value was 0.8.

**Q.** What about the “The level of expressed mRNA in the presence of chemical substance/The level of expressed mRNA in the absence of chemical substance” value (yeast gene YOL164W) of the same compound?
**A.** Its value is 4.9.

**Q.** And the “The level of expressed mRNA in the presence of chemical substance/The level of expressed mRNA in the absence of chemical substance” value (yeast gene YOR036W)?
**A.** The value was 1.2.

**Q.** And the “The level of expressed mRNA in the presence of chemical substance/The level of expressed mRNA in the absence of chemical substance” value (yeast gene YOR117W)?
**A.** Its value is 3.5.

**Q.** What about the “The level of expressed mRNA in the presence of chemical substance/The level of expressed mRNA in the absence of chemical substance” value (yeast gene YOR124C) of the same compound?
**A.** The value was 2.0.

**Q.** And the “The level of expressed mRNA in the presence of chemical substance/The level of expressed mRNA in the absence of chemical substance” value (yeast gene YOR132W)?
**A.** The value was 2.8.

**Q.** And the “The level of expressed mRNA in the presence of chemical substance/The level of expressed mRNA in the absence of chemical substance” value (yeast gene YOR157C)?
**A.** The value was 5.7.

**Q.** What about the “The level of expressed mRNA in the presence of chemical substance/The level of expressed mRNA in the absence of chemical substance” value (yeast gene YOR181W) of the same compound?
**A.** The value was 0.6.

**Q.** What about the “The level of expressed mRNA in the presence of chemical substance/The level of expressed mRNA in the absence of chemical substance” value (yeast gene YOR185C) of the same compound?
**A.** Its value is 1.9.

**Q.** What about the “The level of expressed mRNA in the presence of chemical substance/The level of expressed mRNA in the absence of chemical substance” value (yeast gene YOR198C) of the same compound?
**A.** The value was 2.4.

**Q.** What about the “The level of expressed mRNA in the presence of chemical substance/The level of expressed mRNA in the absence of chemical substance” value (yeast gene YOR259C) of the same compound?
**A.** Its value is 2.7.

**Q.** What about the “The level of expressed mRNA in the presence of chemical substance/The level of expressed mRNA in the absence of chemical substance” value (yeast gene YOR261C) of the same compound?
**A.** The value was 5.5.

**Q.** What about the “The level of expressed mRNA in the presence of chemical substance/The level of expressed mRNA in the absence of chemical substance” value (yeast gene YOR288C) of the same compound?
**A.** Its value is 0.9.

**Q.** What about the “The level of expressed mRNA in the presence of chemical substance/The level of expressed mRNA in the absence of chemical substance” value (yeast gene YOR355W) of the same compound?
**A.** The value was 0.1.

**Q.** What about the “The level of expressed mRNA in the presence of chemical substance/The level of expressed mRNA in the absence of chemical substance” value (yeast gene YOR383C) of the same compound?
**A.** The value was 1.2.

**Q.** What about the “The level of expressed mRNA in the presence of chemical substance/The level of expressed mRNA in the absence of chemical substance” value (yeast gene YPL089C) of the same compound?
**A.** Its value is 0.4.

**Q.** What about the “The level of expressed mRNA in the presence of chemical substance/The level of expressed mRNA in the absence of chemical substance” value (yeast gene YPL109C) of the same compound?
**A.** Its value is 1.2.

**Q.** And the “The level of expressed mRNA in the presence of chemical substance/The level of expressed mRNA in the absence of chemical substance” value (yeast gene YPL149W)?
**A.** Its value is 5.6.

**Q.** And the “The level of expressed mRNA in the presence of chemical substance/The level of expressed mRNA in the absence of chemical substance” value (yeast gene YPL154C)?
**A.** The value was 2.8.

**Q.** And the “The level of expressed mRNA in the presence of chemical substance/The level of expressed mRNA in the absence of chemical substance” value (yeast gene YPR103W)?
**A.** Its value is 5.5.

**Q.** What about the “The level of expressed mRNA in the presence of chemical substance/The level of expressed mRNA in the absence of chemical substance” value (yeast gene YPR108W) of the same compound?
**A.** Its value is 3.7.
